Measurements as given in US4269717A, “Boiler additives for oxygen scavenging” (priority 1980, dated 1981).
Read-outs that look alike come from different tables or passages of the source.

Assays:
[1] = 227-239° F.; for % O2 Removal / Final O2: initial O2 40 ppb; for Oxygen scavenging activity relative to hydrazine: Table II
Method: A second more extensive group of potential oxygen scavengers were compared, again using a small laboratory boiler and oxygen saturated feed water containing sodium hydroxide. […] The hydrazine salts among this group are no less toxic than hydrazine and therefore were eliminated from further study. […] In addition, the carbohydrazide was preferred because it is a solid at room temperature and could therefore be used in dry formulations.
INITIAL SCREENING AT 227-239° F.

[2] = Metal passivation in experimental firerod boiler (Table IV); conditions: 600 p.s.i., 48 hour test
Description: Metal passivation studies were undertaken using an experimental firerod boiler under the following test conditions:
10 boiler water concentrations
40 ppm M alkalinity (as CaCO3)
A blank containing no oxygen scavenger was followed by test runs with hydrazine, carbohydrazide, and sodium sulfite.
*Tubes ranked by appearance of metal surface.

[3] = Initial oxygen scavenger screening in laboratory boiler at 200-220° F. (Table I)
Method: A small laboratory boiler was used to screen a number of potential oxygen scavengers. Oxygen saturated feed water which contained sodium hydroxide was used as the feed. The residence time for the treatment chemical was approximately 11 minutes. The boiler water temperature was maintained at between 200°-220° F. In these tests, 2% hydroquinone was used as the catalyst.
INITIAL SCREENING AT 200-220° F.

[4] = Solubility in water; type: physicochemical
[5] = Carbohydrazide vs. hydrazine in oxygen removal, once-through apparatus (Table III); conditions: initial O2 7.4 ppm, 227-239° F., pH about 10.5
Method: A once-through experimental apparatus for simulating boiler water transport was utilized in this example. Water temperature in this example was maintained at about 227°-239° F. and pH at about 10.5.

[6] = Carbohydrazide low temperature hydrolysis (Table V); type: physicochemical; conditions: for ppm Hydrazine: 100 ppm hydrazine control, pH 10.25
Method: Low temperature hydrolysis studies of carbohydrazide were carried out using reagent grade carbohydrazide containing approximately 2.7±0.1% hydrazine as an impurity. A 1,000 ppm carbohydrazide solution and a 100 ppm hydrazine solution were prepared with deaerated, deionized water. Half of the carbohydrazide solution was adjusted to pH 10.2 with sodium hydroxide and the other half was left at its original pH of 6.9. The solutions were poured into Nessler tubes to overflowing and sealed with stoppers fitted with hypodermic needles to allow pressure release with minimum air contact. Four samples of both of the carbohydrazide solutions and two samples of the hydrazine control were stored at varying temperatures for varying periods of time, all as reported in Table V below.

Compound	% O2 Removal [1]	Final O2 [1]	Oxygen scavenging activity relative to hydrazine [1]	further results
Di (methylformal)diazine	0%	40 ppb		
O=S([O-])[O-].[Na+].[Na+] [Na2 SO3, sodium sulfite, reference compound]				Tube Rank (by appearance of metal surface) ([2]; dosage 20-40 ppm residual): 2; Final O2 ([3]; dosage 400 ppb, pH 9.65, initial O2 40 ppb): .005 ppb
O=CNNC=O [Diformohydrazide]	0%	40 ppb		
O=C(O)NNC(=O)O [Disodiumdihydrazodicarboxylate]	75%	10 ppb	activity comparable to hydrazine	
NN.NN.O=S(O)O [Hydrazinium sulfite, reference compound]		5 ppb	activity comparable to hydrazine	
COC(=O)NNC(=O)OC [Dimethyldihydrazodicarboxylate]	50%	20 ppb		
NNC(=O)C(=O)NN [Oxalic dihydrazide]				Solubility in water (Table II) [4]: Insoluble In Water
NN [Hydrazine, hydrazine, reference compound]	87.5%	5 ppb		Tube Rank (by appearance of metal surface) ([2]; dosage 2 ppm): 3; % O2 Removal ([5]; ppm scavenger/ppm O2 0.1/1): 15.4%; Final O2 ([5]; ppm scavenger/ppm O2 0.1/1): 6.26 ppm; % O2 Removal ([5]; ppm scavenger/ppm O2 0.9/1): 70.5%; Final O2 ([5]; ppm scavenger/ppm O2 0.9/1): 2.18 ppm; % O2 Removal ([5]; ppm scavenger/ppm O2 10.0/1): 99.2%; Final O2 ([5]; ppm scavenger/ppm O2 10.0/1): 0.06 ppm; ppm Hydrazine ([6]; 120° F., 6 days): 86.6 ppm; ppm Hydrazine ([6]; 180° F., 6 days): 87.6 ppm; ppm Hydrazine ([6]; Room Temp. (77° F.), 6 days): 89.8 ppm; ppm Hydrazine ([6]; time 0): 97.4 ppm; Loss of initial hydrazine concentration ([6]; hydrazine control, after 6 days): approximately 10%
NNC=O [Formohydrazide]	0%	40 ppb		
NN.O=S(=O)(O)O [Hydrazine sulfate, Hydrazinium sulfate, reference compound]	87.5%	5 ppb	activity comparable to hydrazine	Final O2 ([3]; dosage 500 ppb, pH 10.5, initial O2 40 ppb, 2% hydroquinone catalyst): 10 ppb
